Data set [1] deals with human liver microsomal cytochrome P450 isozyme (CYP1A2, CYP2C9, CYP2C19, CYP2D6 and CYP3A4). Kind of data set: Human liver microsomal cytochrome P450 isozyme inhibition assay, summary over the main isozymes. The data set is classed as in vitro ADME. Here is the method: (§1) Experimental Embodiment 4: Human Liver Microsomal Cytochrome P450 Isozyme Inhibition Assay The purpose of the assay was to evaluate the inhibitory activity of the samples against human liver microsomal cytochrome P450 isozyme (CYP1A2, CYP2C9, CYP2C19, CYP2D6 and CYP3A4) using the 5-in-1 probe substrate of the CYP isozyme. Mixed human liver microsomes (HLM) were purchased from Corning Inc. (Steuben, N.Y., USA) and stored below −80° C. before use. The test compound working solution which has been diluted into serial concentrations was added to an incubation system containing human liver microsomes, probe substrates and circulating system cofactors, and a control containing solvent without the test compound was used as the enzyme activity control (100%). The concentration of the metabolite produced by the probe substrate in the sample was determined using a liquid chromatography-tandem mass spectrometry (LC-MS/MS) method. Nonlinear regression analysis was performed on the average percent activity versus concentration of subjects using SigmaPlot (V.11). The IC50 value was calculated by a three-parameter or four-parameter inverse-logarithmic equation.

Data set [2] concerns the target T1, CYP2C19 (Homo sapiens, UniProt P33261).
T1 construct: Mixed human liver microsomes (HLM) were purchased from Corning Inc; tissue Corning Inc; host or cells: pooled human liver microsomes
Kind of data set: Human liver microsomal cytochrome P450 isozyme inhibition assay, CYP2C19. The data set is classed as in vitro ADME. To be noted: human liver microsomes. The protocol:
as §1
On the technique in general: Microsomes from liver hold many membrane-bound enzymes, among them those of drug oxidation.

Data set [3] concerns the target T2, human ETA receptor (Homo sapiens, UniProt P25101).
T2 construct: endogenously expressed human ETA receptors in SK-N-MC cells; host or cells: SK-N-MC cells
T2 sequence (P25101 21-427): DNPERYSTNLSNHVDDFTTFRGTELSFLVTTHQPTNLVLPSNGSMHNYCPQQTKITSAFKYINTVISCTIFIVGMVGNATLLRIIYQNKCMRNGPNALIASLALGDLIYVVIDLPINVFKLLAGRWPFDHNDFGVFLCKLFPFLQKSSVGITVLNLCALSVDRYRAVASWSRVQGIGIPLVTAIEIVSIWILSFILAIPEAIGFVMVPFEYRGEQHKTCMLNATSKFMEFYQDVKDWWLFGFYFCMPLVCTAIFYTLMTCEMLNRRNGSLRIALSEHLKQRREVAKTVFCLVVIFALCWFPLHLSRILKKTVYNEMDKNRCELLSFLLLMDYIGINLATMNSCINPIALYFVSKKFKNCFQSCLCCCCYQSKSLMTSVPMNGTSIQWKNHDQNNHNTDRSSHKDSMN
Description: In vitro antagonistic effect against human ETA receptor, Ca2+ signal in SK-N-MC cells. The data set is classed as cell-based. Conditions: for IC50: SK-N-MC cells, response to 1 nM endothelin-1; for ETA/ETB selectivity: ratio of ETB IC50 to ETA IC50. The protocol: Experimental Embodiment 1: In Vitro Test of Antagonistic Effect Against Human ETA Receptor
Antagonistic activity of the compounds against endogenously expressed human ETA receptors in SK-N-MC cells was evaluated by measuring the effect of compounds on the changes in cytoplasmic Ca^2+ ion signal induced by human ETA receptor agonists using fluorescence detection methods. The functional activity of the ETA receptor antagonistic effect was tested in Eurofins-Cerep SA according to current standard procedures.
1. Cells were suspended in Dulbecco's modified Eagle medium solution (DMEM, Invitrogen) supplemented with 1% FCSd, then distributed in 384-well plate (100 μL/well) at a density of 5×10^4 cells/well;
2. Probenecid in Hank's balanced salt solution (HBSS, Invitrogen) supplemented with 20 mM 4-(2-hydroxyethyl)piperazine-1-ethanesulfonic acid (Hepes, Invitrogen) (pH 7.4) was mixed with fluorescent probe (Fluo4 NW, Invitrogen), the mixture was added to each wells, then balanced with cells at 37° C. for 60 minutes, and then balanced with cells at 22° C. for 15 minutes;
3. The test plate was placed in a microplate reader (CellLux, PerkinElmer), a DMSO solution or HBSS buffer with an appropriate concentration of the test compound and the positive control was added, and 1 nM endothelin-1 or HBSS buffer (base control) was added after 5 minutes, and then the change in fluorescence intensity proportional to the concentration of Ca^2+ ions of free […] was measured;
5. Standard positive control was BQ-123, several concentrations were tested in each experiments. The data was analyzed using Prism to generate a concentration-response curve, and IC50 values of the compounds were calculated.

Data set [4] addresses T3, CYP2D6 (Homo sapiens, UniProt P10635).
T3 construct: Mixed human liver microsomes (HLM) were purchased from Corning Inc; tissue Corning Inc; host or cells: pooled human liver microsomes
Kind of data set: Human liver microsomal cytochrome P450 isozyme inhibition assay, CYP2D6. Format: in vitro ADME. To be noted: human liver microsomes. Here is the method: as §1

Data set [5] deals with T4, human ETB receptor (Homo sapiens, UniProt P24530).
T4 construct: host or cells: CHO cells
T4 sequence (P24530 27-442): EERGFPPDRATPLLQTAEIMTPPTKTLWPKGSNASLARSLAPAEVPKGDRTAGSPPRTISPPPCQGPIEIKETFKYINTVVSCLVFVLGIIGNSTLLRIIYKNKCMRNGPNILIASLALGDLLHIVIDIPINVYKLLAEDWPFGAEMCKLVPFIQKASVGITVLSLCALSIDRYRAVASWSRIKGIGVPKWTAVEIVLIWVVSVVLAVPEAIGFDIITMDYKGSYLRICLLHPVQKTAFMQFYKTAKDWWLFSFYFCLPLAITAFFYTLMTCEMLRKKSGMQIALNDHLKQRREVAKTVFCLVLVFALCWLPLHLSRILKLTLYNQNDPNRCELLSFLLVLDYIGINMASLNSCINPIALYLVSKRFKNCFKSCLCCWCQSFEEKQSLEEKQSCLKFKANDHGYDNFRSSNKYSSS
Description: In vitro antagonistic effect against human ETB receptor, Ca2+ signal in transfected CHO cells. Format: cell-based. Conditions: response to 0.3 nM endothelin-1. Here is the method:
Antagonist activity of the compound against human ETB receptors expressed in transfected CHO cells was evaluated by measuring the effect of the compound on the changes in the cytoplasmic Ca^2+ ion signal induced by human ETB receptor agonists. The functional activity of the ETB receptor antagonistic effect was tested in Eurofins-Cerep SA according to current standard procedures.
1. Cells were suspended in DMEM buffer (Invitrogen) and then distributed in 384-well plate (100 μL/well) at a density of 3×10^4 cells/well;
2. Probenecid in HBSS buffer (Invitrogen) supplemented with 20 mM Hepes (Invitrogen) (pH 7.4) was mixed with fluorescent probe (Fluo4 NW, Invitrogen), the mixture was added to each wells, then balanced with cells at 37° C. for 60 minutes, and then balanced with cells at 22° C. for 15 minutes;
3. The test plate was placed in a microplate reader (CellLux, PerkinElmer), a DMSO solution or HBSS buffer with an appropriate concentration of the test compound and the positive control was added, and 0.3 nM endothelin-1 or HBSS buffer (base control) was added after 5 minutes, and then the change in fluorescence intensity proportional to the concentration of Ca^2+ ions of […] was measured;
4. Results were shown as the percent inhibition of control response to 0.3 nM endothelin-1;
5. Standard positive control was BQ-788, several concentrations were tested in each experiments. The data was analyzed using Prism to generate a concentration-response curve, and IC50 values of the compounds were calculated.

The target in data set [6] is T5, CYP1A2 (Homo sapiens, UniProt P05177).
T5 construct: Mixed human liver microsomes (HLM) were purchased from Corning Inc; tissue Corning Inc; host or cells: pooled human liver microsomes
T5 sequence (P05177 1-516): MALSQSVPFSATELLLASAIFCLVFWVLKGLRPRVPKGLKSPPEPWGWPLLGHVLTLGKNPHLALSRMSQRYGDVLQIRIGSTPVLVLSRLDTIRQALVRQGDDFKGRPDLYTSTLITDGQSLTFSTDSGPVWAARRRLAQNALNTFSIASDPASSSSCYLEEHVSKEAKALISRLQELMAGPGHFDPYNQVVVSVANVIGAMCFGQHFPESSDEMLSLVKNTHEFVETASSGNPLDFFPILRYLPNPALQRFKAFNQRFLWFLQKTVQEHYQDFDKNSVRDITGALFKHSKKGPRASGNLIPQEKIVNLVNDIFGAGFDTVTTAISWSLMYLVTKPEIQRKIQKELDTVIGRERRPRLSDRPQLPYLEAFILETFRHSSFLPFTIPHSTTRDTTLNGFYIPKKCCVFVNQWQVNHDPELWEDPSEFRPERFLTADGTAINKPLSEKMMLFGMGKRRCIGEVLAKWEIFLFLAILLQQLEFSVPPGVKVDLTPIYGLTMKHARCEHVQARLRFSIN
Description: Human liver microsomal cytochrome P450 isozyme inhibition assay, CYP1A2. Format: in vitro ADME. To be noted: human liver microsomes. The protocol:
as §1

For data set [7], the target named is T6, CYP2C9 (Homo sapiens, UniProt P11712).
T6 construct: Mixed human liver microsomes (HLM) were purchased from Corning Inc; tissue Corning Inc; host or cells: pooled human liver microsomes
Kind of data set: Human liver microsomal cytochrome P450 isozyme inhibition assay, CYP2C9. Format: in vitro ADME. Conditions: human liver microsomes. Here is the method: as §1

Data set [8] concerns the target T7, CYP3A4 (Homo sapiens, UniProt P08684).
T7 construct: Mixed human liver microsomes (HLM) were purchased from Corning Inc; tissue Corning Inc; host or cells: pooled human liver microsomes
Description: Human liver microsomal cytochrome P450 isozyme inhibition assay, CYP3A4. To be noted: human liver microsomes. Format: in vitro ADME. Here is the method:
as §1

Here are results for three molecules from US11319305B2, “Pyrimidine sulfamide derivative and preparation method and medical application thereof” (SHIJIAZHUANG SAGACITY NEW DRUG DEVELOPMENT CO., LTD., priority 2017, dated 2022).

The IC50 is the concentration at which inhibition is half-maximal. Low readings indicate greater potency in that assay, high ones weaker potency in that assay.

Where only a bound is given, the exact number is not on record here.

T1 sequence (P33261 whole entry): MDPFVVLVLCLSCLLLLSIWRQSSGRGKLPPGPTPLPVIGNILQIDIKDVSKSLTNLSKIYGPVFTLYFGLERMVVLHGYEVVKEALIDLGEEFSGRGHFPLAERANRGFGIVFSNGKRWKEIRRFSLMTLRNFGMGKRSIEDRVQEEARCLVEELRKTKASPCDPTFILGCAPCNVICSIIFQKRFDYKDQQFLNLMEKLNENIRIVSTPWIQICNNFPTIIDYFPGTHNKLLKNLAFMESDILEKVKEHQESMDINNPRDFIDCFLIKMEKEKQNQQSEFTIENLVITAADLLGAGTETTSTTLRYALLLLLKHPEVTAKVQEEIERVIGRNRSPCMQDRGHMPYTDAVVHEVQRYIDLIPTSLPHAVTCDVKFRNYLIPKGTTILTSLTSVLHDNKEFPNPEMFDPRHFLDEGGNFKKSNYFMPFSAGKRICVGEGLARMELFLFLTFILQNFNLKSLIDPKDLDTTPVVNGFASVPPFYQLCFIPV
T3 sequence (P10635 whole entry): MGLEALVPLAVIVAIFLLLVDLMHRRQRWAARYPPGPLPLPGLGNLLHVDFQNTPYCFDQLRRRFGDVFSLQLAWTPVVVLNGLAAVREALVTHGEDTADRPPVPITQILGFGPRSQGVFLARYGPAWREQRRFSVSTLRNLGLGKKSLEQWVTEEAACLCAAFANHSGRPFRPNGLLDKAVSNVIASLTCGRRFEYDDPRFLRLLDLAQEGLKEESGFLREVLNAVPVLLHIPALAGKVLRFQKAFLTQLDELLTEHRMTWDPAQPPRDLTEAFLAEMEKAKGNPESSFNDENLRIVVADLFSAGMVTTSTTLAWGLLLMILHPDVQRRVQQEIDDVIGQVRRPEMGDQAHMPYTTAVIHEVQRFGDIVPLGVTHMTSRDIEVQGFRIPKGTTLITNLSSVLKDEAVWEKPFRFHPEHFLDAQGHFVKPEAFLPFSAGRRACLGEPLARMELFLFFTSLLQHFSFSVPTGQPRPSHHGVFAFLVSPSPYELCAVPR
T7 sequence (P08684 whole entry): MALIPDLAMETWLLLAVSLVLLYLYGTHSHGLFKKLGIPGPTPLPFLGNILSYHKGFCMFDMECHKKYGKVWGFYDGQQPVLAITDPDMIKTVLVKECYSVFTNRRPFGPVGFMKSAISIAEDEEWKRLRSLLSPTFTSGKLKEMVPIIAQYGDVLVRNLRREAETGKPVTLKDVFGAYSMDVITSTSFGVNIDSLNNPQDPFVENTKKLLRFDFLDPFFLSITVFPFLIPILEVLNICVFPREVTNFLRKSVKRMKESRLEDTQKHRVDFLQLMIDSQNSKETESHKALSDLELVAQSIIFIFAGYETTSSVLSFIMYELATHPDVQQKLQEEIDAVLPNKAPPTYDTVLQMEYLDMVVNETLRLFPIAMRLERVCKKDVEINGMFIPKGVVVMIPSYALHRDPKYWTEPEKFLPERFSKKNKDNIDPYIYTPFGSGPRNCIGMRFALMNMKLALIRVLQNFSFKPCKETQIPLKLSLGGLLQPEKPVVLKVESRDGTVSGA
T6 sequence (P11712 whole entry): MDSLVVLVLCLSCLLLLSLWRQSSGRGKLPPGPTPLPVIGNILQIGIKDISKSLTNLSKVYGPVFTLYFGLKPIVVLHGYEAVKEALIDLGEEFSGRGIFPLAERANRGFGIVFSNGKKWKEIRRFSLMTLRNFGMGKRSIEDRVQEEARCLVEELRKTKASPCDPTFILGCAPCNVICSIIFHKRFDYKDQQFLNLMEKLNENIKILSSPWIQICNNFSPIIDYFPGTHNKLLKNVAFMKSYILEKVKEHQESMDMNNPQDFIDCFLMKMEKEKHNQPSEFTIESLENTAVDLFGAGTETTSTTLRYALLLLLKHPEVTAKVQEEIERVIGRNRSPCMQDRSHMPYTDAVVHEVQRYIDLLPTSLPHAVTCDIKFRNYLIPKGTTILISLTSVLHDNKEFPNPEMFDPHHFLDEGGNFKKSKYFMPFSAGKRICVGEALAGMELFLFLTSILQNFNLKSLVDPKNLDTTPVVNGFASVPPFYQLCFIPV

For the molecule `O=S(=O)(NCC1CC1)Nc1ncnc(OCCOc2ncc(Br)cn2)c1-c1ccc2scnc2c1` [WX005], in data set [1], the “inhibitory effects on five main isozymes of CYP (in words)” value is “very weak”. For the same molecule, the IC50 in data set [2] is over 50 µM; in data set [3], 1.4 nM; in data set [4], over 50 µM; in data set [5], 110 µM; in data set [6] it was over 50 µM; in data set [7], over 50 µM. The molecule further showed an IC50 in data set [8] of over 50 µM. Besides, the ETA/ETB selectivity in data set [3] came out at 78500.

Consider `CCCNS(=O)(=O)Nc1ncnc(OCCOc2ncc(Br)cn2)c1-c1ccc2ccnn2c1` [WX025], for which the “inhibitory effects on five main isozymes of CYP (in words)” value in data set [1] is “very weak”. For the same molecule, the IC50 was over 50 µM in data set [2]; 3.1 nM in data set [3]; over 50 µM in data set [4]; 61 µM in data set [5]; over 50 µM in data set [6]; 35 µM in data set [7]. Also, the IC50 in data set [8] is over 50 µM. For the same molecule, the ETA/ETB selectivity in data set [3] was 19600.

For `COCCNS(=O)(=O)Nc1ncnc(OCCOc2ncc(Br)cn2)c1-c1ccc2c(c1)CCO2` [WX034], in data set [3], inhibition was half-maximal at 3.6 nM (IC50) and the ETA/ETB selectivity is 55500. Moreover, in data set [5], half-maximal inhibition (IC50) was put at 200 µM.
